Measured values as given in US6706663B2, “Herbicidal 3-heterocyclic substituted benzisothiazole and benzisoxazole compounds” (Wyeth, priority 2000, dated 2004).

Assays:
[1] = test system: SETVI (Setaria viridis); assay: Postemergence herbicidal evaluation; type: in vivo, (L.) Beau
Outline: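 ~2-wk seedlings; spray 0.0040–1.000 kg/ha in 50/50 acetone/water + 0.5% TWEEN 20, 40 psi nozzle. Greenhouse hold; visual 0–9 rating vs control at 4–5 wk; multiple tests averaged.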

[2] = test system: MOOVA (Monochoria vaginalis); assay: Flooded paddy, preemergence weed control; type: in vivo, Presl.; settings: rated 3-4 weeks after treatment, 0-9 rating scale
Outline: (§1)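 In this preemergence paddy assay, weed seeds or organs are sown at up to 0.5 cm in silt loam and covered by 1.5–3 cm of water for the full test period. After treatment the pots are kept in a greenhouse, and herbicidal effect is rated 0-9 visually against a control.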

[3] = test system: IPOHE (Ipomoea hederacea); assay: Preemergence herbicidal evaluation; type: in vivo, (L.) Jacq.; settings: rated 4-5 weeks after treatment
[4] = test system: GALAP (Galium aparine); assay: Postemergence herbicidal evaluation; type: in vivo
Outline: (§2)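 Seedlings grown about two weeks in flats, sprayed, then kept under standard greenhouse care. Rated visually 4–5 weeks after treatment on a 0–9 scale (stand, vigour, malformation, size, chlorosis, overall appearance) relative to untreated control; repeat tests averaged.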

[5] = test system: GALAP (Galium aparine); assay: Preemergence herbicidal evaluation; type: in vivo; settings: rated 4-5 weeks after treatment
Outline: (§3)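 Scores (0–9) reflect visual comparison with control plants for stand, vigor, malformation, size and chlorosis. Seeds in potting soil received a post-planting spray of compound in aqueous acetone and grew in a greenhouse until assessment 4–5 weeks later.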

[6] = test system: ECHCG (Echinochloa crus-galli); assay: Preemergence herbicidal evaluation; type: in vivo, (L.) Beau; settings: rated 4-5 weeks after treatment
Outline: as §3

[7] = test system: SETVI (Setaria viridis); assay: Preemergence herbicidal evaluation; type: in vivo, (L.) Beau; settings: rated 4-5 weeks after treatment
Outline: as §3

[8] = test system: CYPIR (Cyperus iria); assay: Flooded paddy, preemergence weed control; type: in vivo; settings: rated 3-4 weeks after treatment, 0-9 rating scale
Outline: as §1

[9] = test system: ZEAMX (Corn, Field); assay: Preemergence herbicidal evaluation; type: in vivo, Zea mays, L.; settings: rated 4-5 weeks after treatment
[10] = test system: GLXMAW (Soybean, Williams); assay: Preemergence herbicidal evaluation; type: in vivo, Glycine max, (L.) Merr. cv Williams; settings: rated 4-5 weeks after treatment
[11] = test system: GLXMAW (Soybean, Williams); assay: Postemergence herbicidal evaluation; type: in vivo, Glycine max, (L.) Merr. cv Williams
Outline: as §2

SMILES	Postemergence herbicidal rating, SETVI ([1]; rate 0.0320 kg/ha)	Postemergence herbicidal rating, SETVI ([1]; rate 0.0620 kg/ha)	herbicidal rating, MOOVA ([2]; rate 0.0320 kg/ha)	IPOHE preemergence herbicidal rating ([3]; Rate 0.1250 kg/ha)	IPOHE preemergence herbicidal rating ([3]; Rate 0.2500 kg/ha)	Postemergence herbicidal rating, GALAP ([4]; rate 0.0320 kg/ha)	Postemergence herbicidal rating, GALAP ([4]; rate 0.0620 kg/ha)	GALAP preemergence herbicidal rating ([5]; Rate 0.1250 kg/ha)	GALAP preemergence herbicidal rating ([5]; Rate 0.2500 kg/ha)	ECHCG preemergence herbicidal rating ([6]; Rate 0.1250 kg/ha)	ECHCG preemergence herbicidal rating ([6]; Rate 0.2500 kg/ha)	SETVI preemergence herbicidal rating ([7]; Rate 0.1250 kg/ha)	SETVI preemergence herbicidal rating ([7]; Rate 0.2500 kg/ha)	herbicidal rating, CYPIR ([8]; rate 0.0320 kg/ha)	herbicidal rating, CYPIR ([8]; rate 0.1250 kg/ha)	ZEAMX preemergence herbicidal rating ([9]; Rate 0.1250 kg/ha)	ZEAMX preemergence herbicidal rating ([9]; Rate 0.2500 kg/ha)	GLXMAW preemergence herbicidal rating ([10]; Rate 0.1250 kg/ha)	GLXMAW preemergence herbicidal rating ([10]; Rate 0.2500 kg/ha)	Postemergence herbicidal rating, GLXMAW ([11]; rate 0.0320 kg/ha)	other results
CC1CCOC(c2nsc3ccc(-n4c(=O)cc(C(F)(F)F)n(C)c4=O)cc23)O1 (centres unmarked) [Compound 37, 1-methyl-3-[3-(4-methyl-m-dioxan-2-yl)-1,2-benzisothiazol-5-yl]-6-(trifluoromethyl)uracil]	9.0	9.0	9.0	8.0	7.0	4.0	4.0	9.0	9.0	9.0	9.0	9.0	9.0	9.0	9.0	9.0	9.0	9.0	9.0	9.0	herbicidal rating, MOOVA ([2]; rate 0.0080 kg/ha): 3.0; IPOHE preemergence herbicidal rating ([3]; Rate 0.0620 kg/ha): 7.0; GALAP preemergence herbicidal rating ([5]; Rate 0.0620 kg/ha): 5.0; ECHCG preemergence herbicidal rating ([6]; Rate 0.0620 kg/ha): 9.0; SETVI preemergence herbicidal rating ([7]; Rate 0.0620 kg/ha): 9.0; herbicidal rating, CYPIR ([8]; rate 0.0080 kg/ha): 0.0; ZEAMX preemergence herbicidal rating ([9]; Rate 0.0620 kg/ha): 9.0; GLXMAW preemergence herbicidal rating ([10]; Rate 0.0620 kg/ha): 9.0; Postemergence herbicidal rating, GLXMAW ([11]; rate 0.0620 kg/ha): 9.0
Cc1ccn(-c2nsc3ccc(-n4c(=O)cc(C(F)(F)F)n(C)c4=O)cc23)n1 [Compound 38, 1-methyl-3-[3-(3-methylpyrazol-1-yl)-1,2-benzisothiazol-5-yl]-6-(trifluoromethl)uracil]	0.0	3.0	9.0	0.0	6.0	0.0	4.0	3.0	5.0	9.0	9.0	9.0	9.0	9.0	9.0	5.0	8.0	4.0	4.0	5.5	herbicidal rating, MOOVA ([2]; rate 0.0080 kg/ha): 3.0; IPOHE preemergence herbicidal rating ([3]; Rate 0.0620 kg/ha): 0.0; GALAP preemergence herbicidal rating ([5]; Rate 0.0620 kg/ha): 5.0; ECHCG preemergence herbicidal rating ([6]; Rate 0.0620 kg/ha): 7.0; SETVI preemergence herbicidal rating ([7]; Rate 0.0620 kg/ha): 5.0; herbicidal rating, CYPIR ([8]; rate 0.0080 kg/ha): 3.0; ZEAMX preemergence herbicidal rating ([9]; Rate 0.0620 kg/ha): 5.0; GLXMAW preemergence herbicidal rating ([10]; Rate 0.0620 kg/ha): 0.0; Postemergence herbicidal rating, GLXMAW ([11]; rate 0.0620 kg/ha): 7.0
C#CCOC(=O)COc1ccsc1-c1nsc2ccc(-n3c(=O)cc(C(F)(F)F)n(C)c3=O)cc12 [Compound 39, 2-propynyl [[2-[5-[3,6-dihydro-3-methyl-2,6-dioxo-4-(trifluoromethyl)-1(2H)-pyrimidinyl]-1,2-benzisothiazol-3-yl]-3-thienyl]oxy]acetate]	0.0	3.0	9.0	0.0	1.0	0.0	1.0	0.0	0.0	0.0	0.0	1.0	6.0	5.0	5.0	0.0	1.0	1.0	1.0	5.0	herbicidal rating, MOOVA ([2]; rate 0.1250 kg/ha): 9.0; Preemergence herbicidal rating IPOHE ([3]; Rate 0.0620 kg/ha): 0.0; Preemergence herbicidal rating GALAP ([5]; Rate 0.0620 kg/ha): 0.0; Preemergence herbicidal rating ECHCG ([6]; Rate 0.0620 kg/ha): 0.0; Preemergence herbicidal rating SETVI ([7]; Rate 0.0620 kg/ha): 0.0; Preemergence herbicidal rating ZEAMX ([9]; Rate 0.0620 kg/ha): 0.0; Preemergence herbicidal rating GLXMAW ([10]; Rate 0.0620 kg/ha): 0.0; Postemergence herbicidal rating, GLXMAW ([11]; rate 0.0620 kg/ha): 5.0
